Data reported in ChEMBL document CHEMBL4800722, “Data for DCP probe BI 605906” (2021).

Columns and labels:
[1] = molecular target: Type-1 angiotensin II receptor (Homo sapiens) (UniProt P30556); experiment: AT1 Eurofins SafetyScreen44 (BI)
[2] = molecular target: Ribosomal protein S6 kinase beta-2 (Homo sapiens) (UniProt Q9UBS0); experiment: RPS6KB2 (P70S6KB) Invitrogen Lab (UK) kinase screen (BI); details: Compound concentration 1.0 uM
[3] = molecular target: Voltage-dependent L-type calcium channel subunit alpha-1C (CA+/DILSI/RA) (Rattus norvegicus, UniProt P22002); experiment: CA+/DILSI/RA Eurofins SafetyScreen44 (BI); details: read-out: % Ctrl
[4] = molecular target: Ribosomal protein S6 kinase alpha-3 (Homo sapiens) (UniProt P51812)
[5] = molecular target: Mitogen-activated protein kinase kinase kinase 5 (Homo sapiens) (UniProt Q99683); details: Compound concentration 1.0 uM
[6] = molecular target: Dual specificity testis-specific protein kinase 1 (Homo sapiens) (UniProt Q15569); details: Compound concentration 1.0 uM
[7] = molecular target: Mitogen-activated protein kinase 3 (Homo sapiens) (UniProt P27361); details: Compound concentration 1.0 uM
[8] = species: Rattus norvegicus; details: Compound concentration 10.0 uM
[9] = molecular target: Membrane-associated tyrosine- and threonine-specific cdc2-inhibitory kinase (Homo sapiens) (UniProt Q99640); details: Compound concentration 1.0 uM
[10] = molecular target: Inactive tyrosine-protein kinase PEAK1 (Homo sapiens) (UniProt Q9H792); details: Compound concentration 1.0 uM
[11] = molecular target: Sodium-dependent noradrenaline transporter (Homo sapiens) (UniProt P23975); experiment: NETRANS/H Eurofins SafetyScreen44 (BI); details: Compound concentration 10.0 uM
[12] = molecular target: ATP-sensitive inward rectifier potassium channel 1 isoform X1 (Mesocricetus auratus) (UniProt A0A1U8CU73); experiment: K+/KATP/HA Eurofins SafetyScreen44 (BI); details: Cricetinae; Compound concentration 10.0 uM
[13] = molecular target: Focal adhesion kinase 1 (Homo sapiens) (UniProt Q05397); details: Compound concentration 1.0 uM
[14] = molecular target: 5'-AMP-activated protein kinase catalytic subunit alpha-2/beta-1/gamma-2 (Homo sapiens) (UniProt P54646+Q9UGJ0+Q9Y478); experiment: AMPK (A2/B1/G2) Invitrogen Lab (UK) kinase screen (BI); format: protein-complex assay; details: Compound concentration 1.0 uM
[15] = molecular target: Mitogen-activated protein kinase kinase kinase 7 (Homo sapiens) (UniProt O43318); details: Compound concentration 1.0 uM
[16] = molecular target: Dual specificity tyrosine-phosphorylation-regulated kinase 3 (Homo sapiens) (UniProt O43781); details: Compound concentration 1.0 uM
[17] = molecular target: Histamine H1 receptor (Homo sapiens) (UniProt P35367); details: Compound concentration 10.0 uM
[18] = molecular target: Ankyrin repeat and protein kinase domain-containing protein 1 (Homo sapiens) (UniProt Q8NFD2); details: Compound concentration 1.0 uM
[19] = molecular target: Dual specificity testis-specific protein kinase 2 (Homo sapiens) (UniProt Q96S53); details: Compound concentration 1.0 uM
[20] = molecular target: Serine/threonine-protein kinase/endoribonuclease IRE1 (Homo sapiens) (UniProt O75460); details: Compound concentration 1.0 uM
[21] = molecular target: cAMP-dependent protein kinase catalytic subunit beta (Homo sapiens) (UniProt P22694); experiment: PRKACB (PRKAC BET Invitrogen Lab (UK) kinase screen (BI); details: Compound concentration 1.0 uM
[22] = molecular target: Serine/threonine-protein kinase PLK2 (Homo sapiens) (UniProt Q9NYY3); details: Compound concentration 1.0 uM
[23] = molecular target: Mitogen-activated protein kinase 10 (Homo sapiens) (UniProt P53779); experiment: JNK3 ALPHA 1 DUNDEE kinase screen (BI); details: Compound concentration 10.0 uM
[24] = molecular target: Calcium/calmodulin-dependent protein kinase kinase 2 (Homo sapiens) (UniProt Q96RR4); details: Compound concentration 1.0 uM
[25] = molecular target: Serine/threonine-protein kinase 3 (Homo sapiens) (UniProt Q13188); details: Compound concentration 10.0 uM
[26] = molecular target: CDK2/Cyclin O (Homo sapiens) (UniProt P24941+P22674); experiment: CDK2/CYCLIN O Invitrogen Lab (UK) kinase screen (BI); format: protein-complex assay; details: Compound concentration 1.0 uM
[27] = molecular target: Bone morphogenetic protein receptor type-1B (Homo sapiens) (UniProt O00238); experiment: BMPR1B (ALK6) Invitrogen Lab (UK) kinase screen (BI); details: Compound concentration 1.0 uM
[28] = molecular target: Platelet-derived growth factor receptor alpha (Homo sapiens) (UniProt P16234); details: Compound concentration 1.0 uM
[29] = molecular target: Casein kinase I isoform gamma-2 (Homo sapiens) (UniProt P78368)
[30] = molecular target: STE20-like serine/threonine-protein kinase (Homo sapiens) (UniProt Q9H2G2); details: Compound concentration 1.0 uM
[31] = molecular target: Insulin receptor (Homo sapiens) (UniProt P06213)
[32] = molecular target: Aurora kinase C (Homo sapiens) (UniProt Q9UQB9); details: Compound concentration 1.0 uM
[33] = molecular target: Mitogen-activated protein kinase 14 (Homo sapiens) (UniProt Q16539)
[34] = molecular target: 5-hydroxytryptamine receptor 1A (Homo sapiens) (UniProt P08908); details: Compound concentration 10.0 uM
[35] = molecular target: D(1A) dopamine receptor (Homo sapiens) (UniProt P21728); details: Compound concentration 10.0 uM
[36] = molecular target: Serine/threonine-protein kinase 24 (Homo sapiens) (UniProt Q9Y6E0); details: Compound concentration 1.0 uM
[37] = molecular target: Mitogen-activated protein kinase kinase kinase 3 (Homo sapiens) (UniProt Q99759); details: Compound concentration 1.0 uM
[38] = molecular target: Tyrosine-protein kinase Fer (Homo sapiens) (UniProt P16591); details: Compound concentration 1.0 uM
[39] = molecular target: Muscarinic acetylcholine receptor (Rattus norvegicus) (UniProt P08482+P08483+P08485+P08911+P10980); details: Compound concentration 10.0 uM
[40] = molecular target: Calcium/calmodulin-dependent protein kinase type 1G (Homo sapiens) (UniProt Q96NX5); details: Compound concentration 1.0 uM
[41] = molecular target: PI3-kinase p110-alpha/p85-alpha (Homo sapiens) (UniProt P27986+P42336); experiment: PIK3CAPIK3R1 Invitrogen Lab (UK) kinase screen (BI); format: protein-complex assay; details: Compound concentration 1.0 uM

Voltage-dependent L-type calcium channel subunit alpha-1C (CA+/DILSI/RA), sequence (P22002 whole entry): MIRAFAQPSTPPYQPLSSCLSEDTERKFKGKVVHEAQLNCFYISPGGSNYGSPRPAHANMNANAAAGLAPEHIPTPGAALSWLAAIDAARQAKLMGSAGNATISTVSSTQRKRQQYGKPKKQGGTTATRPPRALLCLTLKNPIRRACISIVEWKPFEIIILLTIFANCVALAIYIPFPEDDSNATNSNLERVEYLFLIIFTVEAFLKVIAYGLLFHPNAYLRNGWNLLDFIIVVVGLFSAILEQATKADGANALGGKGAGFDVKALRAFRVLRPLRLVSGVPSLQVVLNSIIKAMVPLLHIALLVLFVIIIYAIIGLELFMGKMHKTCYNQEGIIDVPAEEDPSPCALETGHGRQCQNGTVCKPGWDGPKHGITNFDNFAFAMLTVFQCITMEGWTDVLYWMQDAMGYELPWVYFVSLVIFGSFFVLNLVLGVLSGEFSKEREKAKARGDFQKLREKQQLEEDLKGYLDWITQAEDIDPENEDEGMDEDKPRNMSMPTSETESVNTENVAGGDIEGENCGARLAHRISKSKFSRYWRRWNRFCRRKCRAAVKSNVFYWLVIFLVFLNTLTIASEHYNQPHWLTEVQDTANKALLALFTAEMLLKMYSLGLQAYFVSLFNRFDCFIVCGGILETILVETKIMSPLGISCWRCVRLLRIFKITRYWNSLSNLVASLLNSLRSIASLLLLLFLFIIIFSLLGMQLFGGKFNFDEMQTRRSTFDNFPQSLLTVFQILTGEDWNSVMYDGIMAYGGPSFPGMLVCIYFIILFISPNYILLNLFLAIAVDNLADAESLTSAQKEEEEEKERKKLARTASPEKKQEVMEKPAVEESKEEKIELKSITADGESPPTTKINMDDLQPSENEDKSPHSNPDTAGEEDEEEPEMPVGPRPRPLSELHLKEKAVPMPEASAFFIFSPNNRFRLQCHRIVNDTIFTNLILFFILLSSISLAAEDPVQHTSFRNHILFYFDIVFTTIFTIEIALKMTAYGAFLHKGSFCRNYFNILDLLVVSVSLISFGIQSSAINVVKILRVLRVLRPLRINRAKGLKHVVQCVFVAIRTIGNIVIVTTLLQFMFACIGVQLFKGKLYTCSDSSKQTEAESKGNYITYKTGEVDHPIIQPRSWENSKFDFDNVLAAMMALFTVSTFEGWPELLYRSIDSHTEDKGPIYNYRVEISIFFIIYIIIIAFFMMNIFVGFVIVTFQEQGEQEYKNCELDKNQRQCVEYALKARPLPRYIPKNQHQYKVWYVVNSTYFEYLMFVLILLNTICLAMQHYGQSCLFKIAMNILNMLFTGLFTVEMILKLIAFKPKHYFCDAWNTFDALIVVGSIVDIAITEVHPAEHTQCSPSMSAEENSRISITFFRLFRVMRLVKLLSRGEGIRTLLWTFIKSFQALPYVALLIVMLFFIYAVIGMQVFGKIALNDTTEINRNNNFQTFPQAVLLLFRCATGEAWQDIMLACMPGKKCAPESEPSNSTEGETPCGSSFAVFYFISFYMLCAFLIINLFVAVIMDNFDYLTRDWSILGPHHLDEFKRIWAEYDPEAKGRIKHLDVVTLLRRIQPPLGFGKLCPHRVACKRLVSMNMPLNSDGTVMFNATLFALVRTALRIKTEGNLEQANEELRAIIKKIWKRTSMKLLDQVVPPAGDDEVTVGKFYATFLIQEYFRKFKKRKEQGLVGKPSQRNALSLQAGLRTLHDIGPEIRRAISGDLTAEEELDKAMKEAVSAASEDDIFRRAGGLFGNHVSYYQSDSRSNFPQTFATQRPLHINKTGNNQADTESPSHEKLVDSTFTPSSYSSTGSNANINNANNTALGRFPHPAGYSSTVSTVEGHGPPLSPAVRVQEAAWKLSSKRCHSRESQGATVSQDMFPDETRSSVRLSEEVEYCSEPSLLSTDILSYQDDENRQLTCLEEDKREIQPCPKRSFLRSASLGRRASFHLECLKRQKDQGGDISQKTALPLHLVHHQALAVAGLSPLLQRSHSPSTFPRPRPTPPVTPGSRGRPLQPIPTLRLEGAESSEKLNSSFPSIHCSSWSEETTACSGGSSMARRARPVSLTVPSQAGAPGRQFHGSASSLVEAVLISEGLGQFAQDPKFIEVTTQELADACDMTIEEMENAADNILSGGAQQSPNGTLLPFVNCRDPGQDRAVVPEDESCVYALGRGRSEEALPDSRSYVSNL
Insulin receptor (Homo sapiens), sequence (P06213 28-758 limits assumed): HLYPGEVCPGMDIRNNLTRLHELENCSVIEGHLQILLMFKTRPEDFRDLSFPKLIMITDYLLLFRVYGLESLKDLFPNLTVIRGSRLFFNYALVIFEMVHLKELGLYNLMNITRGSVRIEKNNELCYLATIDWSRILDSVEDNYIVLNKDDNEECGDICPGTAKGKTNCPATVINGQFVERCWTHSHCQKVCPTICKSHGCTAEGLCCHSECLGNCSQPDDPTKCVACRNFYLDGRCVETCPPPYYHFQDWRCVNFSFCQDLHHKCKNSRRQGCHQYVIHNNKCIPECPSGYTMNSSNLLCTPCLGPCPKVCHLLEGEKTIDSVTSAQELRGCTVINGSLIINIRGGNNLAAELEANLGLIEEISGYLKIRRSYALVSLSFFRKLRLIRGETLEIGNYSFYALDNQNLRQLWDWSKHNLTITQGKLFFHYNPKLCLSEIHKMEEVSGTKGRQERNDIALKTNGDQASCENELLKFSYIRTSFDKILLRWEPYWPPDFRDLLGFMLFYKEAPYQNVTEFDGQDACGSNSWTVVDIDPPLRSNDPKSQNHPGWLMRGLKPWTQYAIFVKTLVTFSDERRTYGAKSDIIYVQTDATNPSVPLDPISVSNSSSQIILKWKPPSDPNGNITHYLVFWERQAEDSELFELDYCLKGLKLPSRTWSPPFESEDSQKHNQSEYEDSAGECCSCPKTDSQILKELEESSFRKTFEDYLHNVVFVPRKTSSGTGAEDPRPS
Insulin receptor (Homo sapiens), sequence (P06213 763-1382 limits assumed): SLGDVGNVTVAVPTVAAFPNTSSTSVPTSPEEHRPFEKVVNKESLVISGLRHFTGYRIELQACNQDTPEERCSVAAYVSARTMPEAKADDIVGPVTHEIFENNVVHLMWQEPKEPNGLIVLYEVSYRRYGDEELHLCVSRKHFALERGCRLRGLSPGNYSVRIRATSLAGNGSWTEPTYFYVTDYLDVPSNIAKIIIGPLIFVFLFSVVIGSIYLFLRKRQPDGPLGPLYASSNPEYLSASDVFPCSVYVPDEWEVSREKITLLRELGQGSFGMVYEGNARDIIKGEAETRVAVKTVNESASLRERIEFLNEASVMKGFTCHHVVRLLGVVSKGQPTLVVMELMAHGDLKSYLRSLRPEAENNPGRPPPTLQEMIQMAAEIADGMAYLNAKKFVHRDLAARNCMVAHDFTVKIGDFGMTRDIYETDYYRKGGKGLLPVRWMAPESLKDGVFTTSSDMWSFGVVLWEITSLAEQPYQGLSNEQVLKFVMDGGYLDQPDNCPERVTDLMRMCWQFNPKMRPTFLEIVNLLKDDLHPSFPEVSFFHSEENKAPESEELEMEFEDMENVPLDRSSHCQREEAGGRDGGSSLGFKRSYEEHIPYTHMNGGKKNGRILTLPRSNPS
Ribosomal protein S6 kinase alpha-3 (Homo sapiens), sequence (P51812 whole entry): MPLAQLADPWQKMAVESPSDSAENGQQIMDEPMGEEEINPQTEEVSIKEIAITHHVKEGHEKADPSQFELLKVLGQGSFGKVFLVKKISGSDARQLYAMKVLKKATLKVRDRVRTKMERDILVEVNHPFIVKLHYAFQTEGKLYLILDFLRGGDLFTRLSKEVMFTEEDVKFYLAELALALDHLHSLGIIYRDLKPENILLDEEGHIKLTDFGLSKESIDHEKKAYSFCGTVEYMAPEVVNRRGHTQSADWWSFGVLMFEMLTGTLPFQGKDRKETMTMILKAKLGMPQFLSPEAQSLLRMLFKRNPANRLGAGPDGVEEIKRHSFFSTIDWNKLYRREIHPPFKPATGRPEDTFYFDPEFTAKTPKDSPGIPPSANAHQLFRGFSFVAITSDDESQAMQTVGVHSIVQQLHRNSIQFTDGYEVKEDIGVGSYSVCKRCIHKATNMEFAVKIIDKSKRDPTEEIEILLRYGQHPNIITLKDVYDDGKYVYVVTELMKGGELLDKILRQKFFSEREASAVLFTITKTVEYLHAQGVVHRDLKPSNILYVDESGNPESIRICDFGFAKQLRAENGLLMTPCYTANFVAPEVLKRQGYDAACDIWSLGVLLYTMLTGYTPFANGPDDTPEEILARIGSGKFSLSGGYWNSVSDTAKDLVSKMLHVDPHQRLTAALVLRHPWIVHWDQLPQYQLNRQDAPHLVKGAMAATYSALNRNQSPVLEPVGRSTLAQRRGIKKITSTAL
Type-1 angiotensin II receptor (Homo sapiens), sequence (P30556 whole entry): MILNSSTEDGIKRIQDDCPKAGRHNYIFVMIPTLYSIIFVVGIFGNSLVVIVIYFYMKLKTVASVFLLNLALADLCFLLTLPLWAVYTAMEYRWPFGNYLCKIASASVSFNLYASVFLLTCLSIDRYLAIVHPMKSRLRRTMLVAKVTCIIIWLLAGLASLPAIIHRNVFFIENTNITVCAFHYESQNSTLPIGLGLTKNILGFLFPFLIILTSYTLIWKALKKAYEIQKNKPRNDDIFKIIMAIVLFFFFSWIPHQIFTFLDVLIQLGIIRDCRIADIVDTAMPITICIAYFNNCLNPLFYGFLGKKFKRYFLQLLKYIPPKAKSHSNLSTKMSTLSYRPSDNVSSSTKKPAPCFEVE
Mitogen-activated protein kinase 14 (Homo sapiens), sequence (Q16539 whole entry): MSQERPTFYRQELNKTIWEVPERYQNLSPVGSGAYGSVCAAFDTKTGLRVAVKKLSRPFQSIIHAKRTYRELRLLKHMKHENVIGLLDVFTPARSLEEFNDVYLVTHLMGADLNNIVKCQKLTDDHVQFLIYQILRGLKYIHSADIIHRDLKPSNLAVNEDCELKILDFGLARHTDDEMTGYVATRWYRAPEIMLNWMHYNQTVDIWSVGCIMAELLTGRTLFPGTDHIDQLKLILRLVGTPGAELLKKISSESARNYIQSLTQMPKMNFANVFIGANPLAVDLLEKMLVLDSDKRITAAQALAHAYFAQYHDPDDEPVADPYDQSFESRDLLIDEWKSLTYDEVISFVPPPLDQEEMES

SMILES: CCC(F)(F)c1cc(N2CCC(S(C)(=O)=O)CC2)nc2sc(C(N)=O)c(N)c12 [BI-605906]
- residual activity ([1]; Compound concentration 10.0 uM): 104%
- residual activity ([1]; Compound concentration 100.0 uM): 72%
- residual activity [2]: 86%
- activity at 1 µM ([3]; compound concentration 1 uM): 99% (not active)
- activity at 3 µM ([3]; compound concentration 3 uM): 111% (not active)
- activity at 10 µM ([3]; compound concentration 10 uM): 101% (not active)
- activity at 30 µM ([3]; compound concentration 30 uM): 87% (not active)
- activity at 100 µM ([3]; compound concentration 100 uM): 45%
- residual activity ([4]; Compound concentration 1.0 uM): 94%
- residual activity ([4]; Compound concentration 10.0 uM): 95%
- residual activity [5]: 99%
- residual activity [6]: 92%
- residual activity [7]: 100%
- residual activity [8]: 97%
- residual activity [9]: 90%
- residual activity [10]: 94%
- residual activity [11]: 112%
- residual activity [12]: 110%
- residual activity [13]: 87%
- residual activity [14]: 88%
- residual activity [15]: 101%
- residual activity [16]: 92%
- residual activity [17]: 95%
- residual activity [18]: 95%
- residual activity [19]: 90%
- residual activity [20]: 82%
- residual activity [21]: 77%
- residual activity [22]: 96%
- residual activity [23]: 72.4%
- residual activity [24]: 93%
- residual activity [25]: 91%
- residual activity [26]: 81%
- residual activity [27]: 74%
- residual activity [28]: 93%
- residual activity ([29]; Compound concentration 1.0 uM): 96%
- residual activity ([29]; Compound concentration 10.0 uM): 94%
- residual activity [30]: 99%
- residual activity ([31]; Compound concentration 1.0 uM): 94%
- residual activity ([31]; Compound concentration 10.0 uM): 93%
- residual activity [32]: 95%
- residual activity ([33]; Compound concentration 1.0 uM): 92%
- residual activity ([33]; Compound concentration 10.0 uM): 60%
- inhibition [34]: 14.4%
- inhibition [35]: 25.7%
- residual activity [36]: 101%
- residual activity [37]: 98%
- residual activity [38]: 95%
- residual activity [39]: 99%
- residual activity [40]: 90%
- residual activity [41]: 103%
